Assay results: patent US12161089B2, “Parasiticidal collar comprising isoxazoline compounds” (Boehringer Ingelheim Animal Health USA Inc., priority 2020, dated 2024)

Assays:
[1] = Isoxazoline compounds in dog hair; format: in vivo; settings: hair collected on Day 110 from 5 areas, PVC collars, FIG. 6
Description: Hair samples from each dog were collected on Day 110 from 5 different areas: (1) central thorax, (2) lower back/caudal region, (3) right thorax, (4) left thorax, and […] top of neck/base of skull above collar site. Suitable bioanalytical methods were used for analysis of the three isoxazoline compounds in dog hair. […] Results for the other two isoxazoline compounds Ia and (S)-Ia are very similar.

Ctenocephalides felis = assay: In-vitro flea exposure effectiveness (contact with collar strips or treated filter papers); settings: filter paper 21 cm^2 loaded with 500 μL of 10 mg/mL in acetone, 24 (±1) hours; for Geometric Mean No. Live Fleas: 3 vials; for Percentage Reduction Live Fleas: versus acetone only control; for Vial 1 # Live Fleas / Vial 2 # Live Fleas / Vial 3 # Live Fleas: approximately 20 fleas
Experimental: The in-vitro susceptibility of Ctenocephalides felis exposed to treated filter papers and to external device compositions (antiparasitic collar) containing isoxazoline active agents (S)-Ia, (S)-Id and (Ia) was determined, wherein the collars comprise a polyvinyl chloride (PVC) matrix or a polybutylene succinate (PBS) matrix.
To determine the in-vitro susceptibility of Ctenocephalides felis exposed to treated filter papers or to the collars compositions comprising the isoxazoline active agent, approximately 20 fleas were transferred to vials containing either the collars or filter papers in accordance with the test groups outlined in Table 3. On Day 0, approximately 20 fleas were placed in 27×55 mm, 5 dram glass vials containing the collars comprising the active agent as outlined in Table 3 or in 60 mm×40 mm glass vials containing treated filter papers. The filter papers tested in groups 9-12 were loaded with 500 μL of a 10 mg/mL solution containing the active agent dissolved in acetone. […] Test vials were placed in an environmental chamber at approximately 28° C. and approximately 80% RH.
The number of dead fleas in each vial were counted on Day 1 at 24 (±1) hours after initial exposure. Fleas were counted as dead if they were not able to maintain an upright posture.

[2] = Plasma drug concentrations in dogs wearing PVC based isoxazoline collars; format: in vivo, dog; settings: 11% active, FIG. 5
Experimental: PK data: Blood samples from all the dogs were taken periodically and drug concentrations in the plasma were analyzed (depicted in FIG. 5). […] In other words, these compounds are likely acting by a systemic mechanism, even though they are applied in a topical collar dosage form. These PK data appear also to correlate with the flea and tick efficacy data in Table 6 and 7 (e.g., compound (S)-Ia is the best, (S)-Id is the second, and Ia the third).

Structure (SMILES)	Level of the drug in dog hair, top of the neck (collar site) compared with other areas [1]	Geometric Mean No. Live Fleas (Ctenocephalides felis)	Percentage Reduction Live Fleas (Ctenocephalides felis)	Vial 1 # Live Fleas (Ctenocephalides felis)	Vial 2 # Live Fleas (Ctenocephalides felis)	Vial 3 # Live Fleas (Ctenocephalides felis)	PK data, order of the compounds (correlating with flea and tick efficacy) [2]	Isoxazoline compound levels in hair throughout bodies of the dogs [1]
O=C(CNC(=O)c1ccc(C2=NOC(c3cc(Cl)cc(C(F)(F)F)c3)(C(F)(F)F)C2)c2ccccc12)NCC(F)(F)F (centres unmarked) [(Ia), 4-[5-[3-chloro-5-(trifluoromethyl)phenyl]-4,5-dihydro-5-(trifluoromethyl)-3-isoxazolyl]-N-[2-oxo-2-[(2,2,2-trifluoroethyl)amino]ethyl]-1-naphthalanecarboxamide]	very similar	19.6	3.3%	19	21	19	the third	–
O=C(CNC(=O)c1ccc(C2=NO[C@@](c3cc(Cl)cc(C(F)(F)F)c3)(C(F)(F)F)C2)c2ccccc12)NCC(F)(F)F [(S)-Ia]	very similar	19.0	6.5%	19	20	18	the best	–
O=C(CNC(=O)c1ccc(C2=NO[C@@](c3cc(Cl)c(F)c(C(F)(F)F)c3)(C(F)(F)F)C2)c2ccccc12)NCC(F)(F)F [(S)-Id]	highest level of the drug	–	–	–	–	–	the second	detectable
